Measurements published in ChEMBL document CHEMBL1687734, “Pharmacokinetics of EDP-420 after multiple oral doses in healthy adult volunteers and in a bioequivalence study” (Antimicrob Agents Chemother, 2009).

Key:
Homo sapiens [1] = assay: Toxicity in healthy human assessed as occurrence of mortality at 400 mg administered once on day 1 followed by 200 mg once daily for 2 days during 3 days of treatment; assay type: organism-based; settings: in vivo
Homo sapiens [2] = assay: Toxicity in healthy human in 8 hrs fasted healthy human assessed as changes in liver functions at 200 mg, po administered as single dose of two-100 mg capsules; assay type: organism-based; settings: in vivo
[3] = AUC (0 to last) in high-fat fed healthy human plasma at 200 mg, po administered as single dose of two-100 mg capsules; assay type: ADME, organism-based; set-up: dose 200 mg, time 0 - last, route oral
[4] = AUC (0 to last) in 8 hrs fasted healthy human plasma at 200 mg, po administered as single dose of suspension; assay type: ADME, organism-based; set-up: dose 200 mg, route oral, time 0 - last
Homo sapiens [5] = assay: Toxicity in high-fat fed healthy human assessed as changes in vital signs at 200 mg, po administered as single dose of two-100 mg capsules; assay type: organism-based; settings: in vivo
[6] = Half life in healthy human plasma at 400 mg administered once on day 1 followed by 200 mg once daily for 2 days during 3 days of treatment measured after 3 days; assay type: ADME, organism-based
[7] = AUC (0 to 24 hrs) in Epithelial lining fluid of healthy human at 400 mg, po administered as single dose; assay type: ADME, organism-based; settings: read-out: Drug uptake
Homo sapiens [8] = assay: Toxicity in healthy human in 8 hrs fasted healthy human assessed as changes in ECG at 200 mg, po administered as single dose of two-100 mg capsules; assay type: organism-based; settings: in vivo
Homo sapiens [9] = assay: Ratio of Cmax in high-fat fed healthy human plasma at 200 mg, po administered as single dose of two-100 mg capsules to cmax in high-fat fed healthy human plasma assessed as EDP-420 9-keto level at 200 mg, po administered as single dose of two-100 mg capsules; assay type: ADME, organism-based; settings: in vivo
Homo sapiens [10] = assay: Toxicity in healthy human in 8 hrs fasted healthy human assessed as changes in liver functions at 200 mg, po administered as single dose of suspension; assay type: organism-based; settings: in vivo
[11] = Cmax in high-fat fed healthy human plasma at 200 mg, po administered as single dose of two-100 mg capsules; assay type: ADME, organism-based; set-up: dose 200 mg, route oral
[12] = Ratio of drug concentration in Epithelial lining fluid of healthy human at 400 mg, po administered as single dose after 24 hrs to drug concentration in Epithelial lining fluid of healthy human at 500 mg, po administered as single dose after 24 hrs; assay type: ADME, organism-based; settings: in vivo
[13] = Cmax in 8 hrs fasted healthy human plasma at 200 mg, po administered as single dose of two-100 mg capsules; assay type: ADME, organism-based; set-up: dose 200 mg, route oral
[14] = Cmax in 8 hrs fasted healthy human plasma at 200 mg, po administered as single dose of suspension; assay type: ADME, organism-based; set-up: dose 200 mg, route oral
Homo sapiens [15] = assay: Toxicity in high-fat fed healthy human assessed as changes in ECG at 200 mg, po administered as single dose of two-100 mg capsules; assay type: organism-based; settings: in vivo
[16] = AUC (0 to last) in healthy human plasma at 200 mg, po once daily for 3 days measured after 3 days; assay type: ADME, organism-based; set-up: dose 200 mg, route oral, time 0 - last
Homo sapiens [17] = assay: Toxicity in healthy human in 8 hrs fasted healthy human assessed as changes in physical examinations at 200 mg, po administered as single dose of two-100 mg capsules; assay type: organism-based; settings: in vivo
Homo sapiens [18] = assay: Toxicity in healthy human in 8 hrs fasted healthy human assessed as changes in ECG at 200 mg, po administered as single dose of suspension; assay type: organism-based; settings: in vivo
[19] = Tmax in healthy human plasma at 200 mg, po once daily for 3 days measured after 1 day; assay type: ADME, organism-based
[20] = AUC (0 to infinity) in 8 hrs fasted healthy human plasma at 200 mg, po administered as single dose of suspension; assay type: ADME, organism-based; set-up: dose 200 mg, route oral, time infinity
[21] = Tmax in healthy human plasma at 400 mg administered once on day 1 followed by 200 mg once daily for 2 days during 3 days of treatment measured after 3 days; assay type: ADME, organism-based
Homo sapiens [22] = assay: Ratio of AUC (0 to 24 hrs) in healthy human plasma at 200 mg, po once daily for 3 days measured on day 3 to AUC (0 to 24 hrs) in healthy human plasma at 200 mg, po once daily for 3 days measured on day 1; assay type: ADME, organism-based; settings: in vivo
[23] = AUC (0 to infinity) in high-fat fed healthy human plasma at 200 mg, po administered as single dose of two-100 mg capsules; assay type: ADME, organism-based; set-up: dose 200 mg, route oral, time infinity
Homo sapiens [24] = assay: Toxicity in healthy human assessed as severe adverse events at 400 mg administered once on day 1 followed by 200 mg once daily for 2 days during 3 days of treatment; assay type: organism-based; settings: in vivo
Homo sapiens [25] = assay: Toxicity in healthy human in 8 hrs fasted healthy human assessed as changes in vital signs at 200 mg, po administered as single dose of two-100 mg capsules; assay type: organism-based; settings: in vivo
[26] = Half life in 8 hrs fasted healthy human plasma at 200 mg, po administered as single dose of suspension; assay type: ADME, organism-based
[27] = Drug concentration in Alveolar macrophage of healthy human at 400 mg, po administered as single dose after 24 hrs; assay type: ADME, organism-based; settings: alveolar macrophages, read-out: Drug uptake
Homo sapiens [28] = assay: Toxicity in high-fat fed healthy human assessed as changes in physical examinations at 200 mg, po administered as single dose of two-100 mg capsules; assay type: organism-based; settings: in vivo
Homo sapiens [29] = assay: Ratio of AUC (0 to infinity) in 8 hrs fasted healthy human plasma at 200 mg, po administered as single dose of suspension to AUC (0 to infinity) in 8 hrs fasted healthy human plasma assessed as EDP-420 9-keto level at 200 mg, po administered as single dose of suspension; assay type: ADME, organism-based; settings: in vivo
[30] = Cmax in healthy human plasma at 200 mg, po once daily for 3 days measured after 3 days; assay type: ADME, organism-based; set-up: dose 200 mg, route oral

AUC(0-t) [3]: 8940 ng·h/mL
AUC(0-t) [4]: 8270 ng·h/mL
half-life [6]: 1060 min
AUC [7]: 212 µg·h/mL
Ratio (Homo sapiens [9]): 0.092
Cmax [11]: 394 ng/mL
Ratio [12]: > 72
Cmax [13]: 405 ng/mL
Cmax [14]: 381 ng/mL
AUC(0-t) at 72 h [16]: 16400 ng·h/mL
Tmax [19]: 3.5 h
AUC(0-inf) [20]: 8350 ng·h/mL
Tmax [21]: 3.5 h
Ratio AUC (Homo sapiens [22]): 1.41
AUC(0-inf) [23]: 9040 ng·h/mL
half-life [26]: 1010 min
concentration at 24 h [27]: 68 µg/mL
Ratio (Homo sapiens [29]): 0.101
Cmax [30]: 559 ng/mL
SMILES: CC[C@H]1OC(=O)[C@H](C)C(=O)[C@H](C)[C@@H](O[C@@H]2O[C@H](C)C[C@H](N(C)C)[C@H]2O)[C@@]2(C)C[C@@H](C)/C(=N\C(C)=O)[C@H](C)[C@@H](OC/C(=N\OCc3ccc(-n4cccn4)nc3)CO2)[C@]1(C)O [MODITHROMYCIN]
Activity (Homo sapiens [1]): Non-toxic
Activity (Homo sapiens [2]): Non-toxic
Activity (Homo sapiens [5]): Non-toxic
Activity (Homo sapiens [8]): Non-toxic
Activity (Homo sapiens [10]): Non-toxic
Activity (Homo sapiens [15]): Non-toxic
Activity (Homo sapiens [17]): Non-toxic
Activity (Homo sapiens [18]): Non-toxic
Activity (Homo sapiens [24]): Non-toxic
Activity (Homo sapiens [25]): Non-toxic
Activity (Homo sapiens [28]): Non-toxic
